Results as given in US6914045B2, “Glycopeptide antibiotics” (Wyeth Holdings Corporation, priority 2001, dated 2005).
In brackets after ≈: the same amount, converted by molar mass. Each block holds one molecule with its values, some of them ahead of it.

Tests used:
Experiment in all cases: in vitro antibacterial evaluation, MIC by broth dilution
Assay type in all cases: cell-based
Enterococcus sp. = settings: broth dilution, 18 hours at 35° C.
Description: (§1) Methods for in vitro Antibacterial Evaluation (Table 1)
(§2) The minimum inhibitory concentration (MIC), the lowest concentration of the antibiotic which inhibits growth of the test organism, is determined by the broth dilution method using Muller-Hinton II […] (Baltimore Biological Laboratories) following the recommendations of the National Committee for Clinical Laboratory Standards [Methods for dilution antimicrobial susceptibility tests for bacteria that grow aerobically, approved standard M7-A2, National Committee for Clinical Laboratory Standards, Villanova, Pa.].
(§3) An inoculum level of 5×10^5 CFU/mL, and a range of antibiotic concentrations (64-0.06 μg/mL) is used. […] The test organisms include a spectrum of Gram-positive bacteria comprised of Staphylococcus sp., Streptococcus sp. and Enterococcus sp. These organisms include recent clinical isolates that are resistant to methicillin, penicillin and/or vancomycin.

Staphylococcus sp. = settings: broth dilution, 18 hours at 35° C.; for MIC Staphylococcus aureus (ATCC 29213): strain ATCC 29213; for MIC Staphylococcus aureus (GC 1131): strain GC 1131; for MIC Staphylococcus aureus (GC 3051): strain GC 3051; for MIC Staphylococcus aureus (GC 3053): strain GC 3053; for MIC Staphylococcus aureus (GC 4541): strain GC 4541; for MIC Staphylococcus aureus (GC 4542): strain GC 4542; for MIC Staphylococcus aureus-SMITH (GC 4543): strain GC 4543; for MIC Staphylococcus aureus (GC 4544): strain GC 4544; for MIC Staphylococcus aureus (GC 4545): strain GC 4545; for MIC Staphylococcus haemolyticus (GC 4546): strain GC 4546; for MIC Coagulase Negative Staphylococcus (GC 4547): strain GC 4547; for MIC Coagulase Negative Staphylococcus (GC 4548): strain GC 4548; for MIC Coagulase Negative Staphylococcus (GC 4549): strain GC 4549; for MIC Coagulase Negative Staphylococcus (GC 4551): strain GC 4551; for MIC Coagulase Negative Staphylococcus (GC 6257): strain GC 6257
Description: as §1, §2, §3

Streptococcus sp. = settings: broth dilution, 18 hours at 35° C.
Description: as §1, §2, §3

Escherichia coli = settings: 18 hours at 35° C.
How it was run: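 Broth dilution in Muller-Hinton II medium per NCCLS standard M7-A2, with an inoculum of 5×10^5 CFU/mL and antibiotic tested over 64-0.06 μg/mL. MIC was taken as the lowest concentration inhibiting visible growth.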

[1] = Enterococcus faecalis (ATCC 29212)
[2] = Enterococcus faecalis (GC 4552)
[3] = Enterococcus faecalis (GC 4553)
[4] = Enterococcus faecalis (GC 4554)
[5] = Enterococcus faecalis (GC 6189)

MIC Enterococcus avium (GC 4558) (Enterococcus sp.; Enterococcus avium (GC 4558)): 128 µg/mL (≈ 73.3 µM) | MIC Enterococcus faecalis (ATCC 29212) (Enterococcus sp.; [1]): >128 µg/mL | MIC Enterococcus faecalis (GC 4552) (Enterococcus sp.; [2]): >128 µg/mL | MIC Enterococcus faecalis (GC 4553) (Enterococcus sp.; [3]): 128 µg/mL (≈ 73.3 µM) | MIC Enterococcus faecalis (GC 4554) (Enterococcus sp.; [4]): >128 µg/mL | MIC Enterococcus faecalis (GC 6189) (Enterococcus sp.; [5]): >128 µg/mL | MIC Enterococcus faecium (GC 2243) (Enterococcus sp.; Enterococcus faecium (GC 2243)): >128 µg/mL | MIC Enterococcus faecium (GC 4556) (Enterococcus sp.; Enterococcus faecium (GC 4556)): >128 µg/mL | MIC Enterococcus faecium (GC 4557) (Enterococcus sp.; Enterococcus faecium (GC 4557)): 64 µg/mL (≈ 36.7 µM) | MIC Enterococcus avium (GC 4558) (Enterococcus sp.): 128 µg/mL (≈ 73.3 µM) | MIC Enterococcus faecalis (ATCC 29212) (Enterococcus sp.): >128 µg/mL | MIC Enterococcus faecalis (GC 2242) (Enterococcus sp.): >128 µg/mL | MIC Enterococcus faecalis (GC 2691) (Enterococcus sp.): >128 µg/mL | MIC Enterococcus faecalis (GC 3059) (Enterococcus sp.): >128 µg/mL | MIC Enterococcus faecalis (GC 4552) (Enterococcus sp.): >128 µg/mL | MIC Enterococcus faecalis (GC 4553) (Enterococcus sp.): 128 µg/mL (≈ 73.3 µM) | MIC Enterococcus faecalis (GC 4554) (Enterococcus sp.): >128 µg/mL | MIC Enterococcus faecalis (GC 6189) (Enterococcus sp.): >128 µg/mL | MIC Enterococcus faecium (GC 2243) (Enterococcus sp.): >128 µg/mL | MIC Enterococcus faecium (GC 4556) (Enterococcus sp.): >128 µg/mL | MIC Enterococcus faecium (GC 4557) (Enterococcus sp.): 64 µg/mL (≈ 36.7 µM) | MIC Enterococcus faecalis (GC 2242) (Enterococcus sp.; strain GC 2242): >128 µg/mL | MIC Enterococcus faecalis (GC 2691) (Enterococcus sp.; strain GC 2691): >128 µg/mL | MIC Enterococcus faecalis (GC 3059) (Enterococcus sp.; strain GC 3059): >128 µg/mL | MIC Staphylococcus aureus (ATCC 29213) (Staphylococcus sp.): >128 µg/mL | MIC Staphylococcus aureus (GC 1131) (Staphylococcus sp.): >128 µg/mL | MIC Staphylococcus aureus (GC 3051) (Staphylococcus sp.): >128 µg/mL | MIC Staphylococcus aureus (GC 3053) (Staphylococcus sp.): >128 µg/mL | MIC Staphylococcus aureus (GC 4541) (Staphylococcus sp.): >128 µg/mL | MIC Staphylococcus aureus (GC 4542) (Staphylococcus sp.): >128 µg/mL | MIC Staphylococcus aureus-SMITH (GC 4543) (Staphylococcus sp.): >128 µg/mL | MIC Staphylococcus aureus (GC 4544) (Staphylococcus sp.): >128 µg/mL | MIC Staphylococcus aureus (GC 4545) (Staphylococcus sp.): >128 µg/mL | MIC Coagulase Negative Staphylococcus (GC 4547) (Staphylococcus sp.): >128 µg/mL | MIC Coagulase Negative Staphylococcus (GC 4548) (Staphylococcus sp.): >128 µg/mL | MIC Coagulase Negative Staphylococcus (GC 4549) (Staphylococcus sp.): >128 µg/mL | MIC Coagulase Negative Staphylococcus (GC 4551) (Staphylococcus sp.): >128 µg/mL | MIC Coagulase Negative Staphylococcus (GC 6257) (Staphylococcus sp.): >128 µg/mL | MIC Streptococcus agalactiae (GC 4564) (Streptococcus sp.): >128 µg/mL | MIC Streptococcus pneumoniae (ATCC 6301) (Streptococcus sp.): 128 µg/mL (≈ 73.3 µM) | MIC Streptococcus pneumoniae (GC 1894) (Streptococcus sp.): 64 µg/mL (≈ 36.7 µM) | MIC Streptococcus pneumoniae (GC 4565) (Streptococcus sp.): 128 µg/mL (≈ 73.3 µM) | MIC Streptococcus pyogenes (GC 4563) (Streptococcus sp.): >128 µg/mL | MIC Streptococcus pneumoniae (ATCC 6301) (Streptococcus sp.; strain ATCC 6301): 128 µg/mL (≈ 73.3 µM) | MIC Streptococcus pneumoniae (GC 1894) (Streptococcus sp.; strain GC 1894): 64 µg/mL (≈ 36.7 µM) | MIC Streptococcus pyogenes (GC 4563) (Streptococcus sp.; strain GC 4563): >128 µg/mL | MIC Streptococcus agalactiae (GC 4564) (Streptococcus sp.; strain GC 4564): >128 µg/mL | MIC Streptococcus pneumoniae (GC 4565) (Streptococcus sp.; strain GC 4565): 128 µg/mL (≈ 73.3 µM) | MIC Escherichia coli (ATCC 25922) (Escherichia coli): >128 µg/mL | MIC Escherichia coli (GC 4559) (Escherichia coli): >128 µg/mL | MIC Escherichia coli (GC 4560) (Escherichia coli): 4 µg/mL (≈ 2.29 µM)
Compound: CC(c1ccccc1)C1NC(=O)CNC(=O)C(CO)NC(=O)C(C(O)C2CN(Cc3ccccc3)C(=NCc3ccccc3)N2C2OC(CO)C(O)C(O)C2O)NC(=O)C(C(O)C2CN(Cc3ccccc3)C(=NCc3ccccc3)N2Cc2ccccc2)NC(=O)C(Cc2ccc(OC3OC(CO)C(OC4OC(CO)C(O)C(O)C4O)C(O)C3O)cc2)NC1=O (stereo not drawn) [Example 62, Cyclo[glycyl-β-methylphenylalanyl-O-(4-O-hexopyranosylhexopyranosyl)tyrosyl-3-[1,3-dibenzyl-2-(benzylimino)imidazolidin-4-yl]seryl-3-[1-benzyl-2-(benzylimino)-3-hexopyranosylimidazolidin-4-yl]serylseryl]]
MIC Staphylococcus haemolyticus (GC 4546) (Staphylococcus sp.): >128 µg/mL

MIC Enterococcus avium (GC 4558) (Enterococcus sp.; Enterococcus avium (GC 4558)): 128 µg/mL (≈ 74.7 µM) | MIC Enterococcus faecalis (ATCC 29212) (Enterococcus sp.; [1]): >128 µg/mL | MIC Enterococcus faecalis (GC 4552) (Enterococcus sp.; [2]): >128 µg/mL | MIC Enterococcus faecalis (GC 4553) (Enterococcus sp.; [3]): >128 µg/mL | MIC Enterococcus faecalis (GC 4554) (Enterococcus sp.; [4]): >128 µg/mL | MIC Enterococcus faecalis (GC 6189) (Enterococcus sp.; [5]): >128 µg/mL | MIC Enterococcus faecium (GC 2243) (Enterococcus sp.; Enterococcus faecium (GC 2243)): >128 µg/mL | MIC Enterococcus faecium (GC 4556) (Enterococcus sp.; Enterococcus faecium (GC 4556)): >128 µg/mL | MIC Enterococcus faecium (GC 4557) (Enterococcus sp.; Enterococcus faecium (GC 4557)): 128 µg/mL (≈ 74.7 µM) | MIC Enterococcus avium (GC 4558) (Enterococcus sp.): 128 µg/mL (≈ 74.7 µM) | MIC Enterococcus faecalis (ATCC 29212) (Enterococcus sp.): >128 µg/mL | MIC Enterococcus faecalis (GC 2242) (Enterococcus sp.): >128 µg/mL | MIC Enterococcus faecalis (GC 2691) (Enterococcus sp.): >128 µg/mL | MIC Enterococcus faecalis (GC 3059) (Enterococcus sp.): >128 µg/mL | MIC Enterococcus faecalis (GC 4552) (Enterococcus sp.): >128 µg/mL | MIC Enterococcus faecalis (GC 4553) (Enterococcus sp.): >128 µg/mL | MIC Enterococcus faecalis (GC 4554) (Enterococcus sp.): >128 µg/mL | MIC Enterococcus faecalis (GC 6189) (Enterococcus sp.): >128 µg/mL | MIC Enterococcus faecium (GC 2243) (Enterococcus sp.): >128 µg/mL | MIC Enterococcus faecium (GC 4556) (Enterococcus sp.): >128 µg/mL | MIC Enterococcus faecium (GC 4557) (Enterococcus sp.): 128 µg/mL (≈ 74.7 µM) | MIC Enterococcus faecalis (GC 2242) (Enterococcus sp.; strain GC 2242): >128 µg/mL | MIC Enterococcus faecalis (GC 2691) (Enterococcus sp.; strain GC 2691): >128 µg/mL | MIC Enterococcus faecalis (GC 3059) (Enterococcus sp.; strain GC 3059): >128 µg/mL | MIC Staphylococcus aureus (ATCC 29213) (Staphylococcus sp.): >128 µg/mL | MIC Staphylococcus aureus (GC 1131) (Staphylococcus sp.): >128 µg/mL | MIC Staphylococcus aureus (GC 3051) (Staphylococcus sp.): >128 µg/mL | MIC Staphylococcus aureus (GC 3053) (Staphylococcus sp.): >128 µg/mL | MIC Staphylococcus aureus (GC 4541) (Staphylococcus sp.): >128 µg/mL | MIC Staphylococcus aureus (GC 4542) (Staphylococcus sp.): >128 µg/mL | MIC Staphylococcus aureus-SMITH (GC 4543) (Staphylococcus sp.): >128 µg/mL | MIC Staphylococcus aureus (GC 4544) (Staphylococcus sp.): >128 µg/mL | MIC Staphylococcus aureus (GC 4545) (Staphylococcus sp.): >128 µg/mL | MIC Coagulase Negative Staphylococcus (GC 4547) (Staphylococcus sp.): >128 µg/mL | MIC Coagulase Negative Staphylococcus (GC 4548) (Staphylococcus sp.): >128 µg/mL | MIC Coagulase Negative Staphylococcus (GC 4549) (Staphylococcus sp.): >128 µg/mL | MIC Coagulase Negative Staphylococcus (GC 4551) (Staphylococcus sp.): >128 µg/mL | MIC Coagulase Negative Staphylococcus (GC 6257) (Staphylococcus sp.): >128 µg/mL | MIC Streptococcus agalactiae (GC 4564) (Streptococcus sp.): >128 µg/mL | MIC Streptococcus pneumoniae (ATCC 6301) (Streptococcus sp.): 128 µg/mL (≈ 74.7 µM) | MIC Streptococcus pneumoniae (GC 1894) (Streptococcus sp.): 64 µg/mL (≈ 37.3 µM) | MIC Streptococcus pneumoniae (GC 4565) (Streptococcus sp.): 128 µg/mL (≈ 74.7 µM) | MIC Streptococcus pyogenes (GC 4563) (Streptococcus sp.): >128 µg/mL | MIC Streptococcus pneumoniae (ATCC 6301) (Streptococcus sp.; strain ATCC 6301): 128 µg/mL (≈ 74.7 µM) | MIC Streptococcus pneumoniae (GC 1894) (Streptococcus sp.; strain GC 1894): 64 µg/mL (≈ 37.3 µM) | MIC Streptococcus pyogenes (GC 4563) (Streptococcus sp.; strain GC 4563): >128 µg/mL | MIC Streptococcus agalactiae (GC 4564) (Streptococcus sp.; strain GC 4564): >128 µg/mL | MIC Streptococcus pneumoniae (GC 4565) (Streptococcus sp.; strain GC 4565): 128 µg/mL (≈ 74.7 µM) | MIC Escherichia coli (ATCC 25922) (Escherichia coli): >128 µg/mL | MIC Escherichia coli (GC 4559) (Escherichia coli): >128 µg/mL | MIC Escherichia coli (GC 4560) (Escherichia coli): 16 µg/mL (≈ 9.34 µM)
Compound: CC(c1ccccc1)C1NC(=O)CNC(=O)C(CO)NC(=O)C(CC2CN(Cc3ccccc3)C(=NCc3ccccc3)N2C2OC(CO)C(O)C(O)C2O)NC(=O)C(CC2CN(Cc3ccccc3)C(=NCc3ccccc3)N2Cc2ccccc2)NC(=O)C(Cc2ccc(OC3OC(CO)C(OC4OC(CO)C(O)C(O)C4O)C(O)C3O)cc2)NC1=O (stereo not drawn) [Example 73, Cyclo[3-[1,3-benzyl-2-(benzylimino)imidazolidin-4-yl]alanyl-3-[1-benzyl-2-(benzylimino)-3-hexopyranosylimidazolidin-4-yl]alanylserylglycyl-β-methylphenylalanyl-O-(4-O-hexopyranosylhexopyranosyl)tyrosyl]]
MIC Staphylococcus haemolyticus (GC 4546) (Staphylococcus sp.): >128 µg/mL
